Laboratory results published in patent US20210169077A1, “METHOD FOR IMPROVING SEED GERMINATION AND/OR PLANT TOLERANCE TO ENVIRONMENTAL STRESS” (DANSTAR FERMENT AG, priority 2017, published 2021).
“And” between values parts separate entries of the source, which are not always exact repeats. Identical values can stand only once.

Columns and labels:
Assay type in all cases: in vivo
[1] = system: corn seeds of the variety LG 32.58; assay: Internal glycine-betaine concentration in corn seeds after foliar application, variety LG 32.58 (field trial, 1H-NMR)
Protocol: (§1) The field trial was performed with two different varieties of corn: the LG 32.58 variety and the Casey variety.
(§2) To prevent auto-fertilization during the corn seed production, the male reproductive parts of the female line were removed prior to the time of pollen shed.
[…] Each repetition consists of 18 plants. Control plants were treated with water.
(§3) Seeds (200) were collected at maturity. Seeds were ground using a ball mill and extracted with ethanol. Samples were evaporated to dryness and dissolved in deuterium oxide (D20) (50 mg/ml). 1H-NMR analysis (Bruker, at 500 MHz) was performed using 3-(trimethylsilyl)-1-propane sulfonate sodium salt (DSS) as the internal standard. Values in ppm assigned to NMR signals are chemical shifts of the 9 protons which give the signal, for the glycine-betaine, at 3.251 ppm. A total of three extractions were performed on each sample.

corn seed = assay: Effect of cold temperature on corn seed germination
Protocol: Two hundred seeds of each treatment (plants treated with water and plants treated with glycine-betaine) were planted onto moistened sand. Samples were placed into a germination chamber at 10° C. for a period of 7 days. Samples were then transferred to a germination chamber set to 25° C. for 5 days. The experiment was conducted with a variety of seeds with increased cold tolerance compared to more traditional seed varieties. The germination rate of standard seeds after a cold germination test is between 50 to 70%.

corn seed Variety 1 = assay: Internal concentration of glycine-betaine (mg/kg) in corn seed, Variety 1 female lines; settings: for Percentage increase in internal GB concentration: versus plants treated with water
Protocol: as §2
(§4) The commercial Greenstim® (Lallemand) formulation was sprayed to the female line leaves during grain development stage at the equivalent of 4 kg/hectare. Each repetition consists of 18 plants. Control plants were treated with water.
as §3

[2] = system: corn seeds of the variety Casey; assay: Internal glycine-betaine concentration in corn seeds after foliar application, variety Casey (field trial, 1H-NMR); settings: Greenstim sprayed on female line leaves at grain development stage, 4 kg/hectare, seeds collected at maturity, Rep 1-3, letter b differs from water control (p < 0.05)
Protocol: as §1, §2, §4, §3

## C[N+](C)(C)CC(=O)[O-] [GB, N,N,N-trimethylglycine]
[1]; corn variety LG 32.58, Greenstim sprayed on female line leaves at grain development stage, 4 kg/hectare, seeds collected at maturity, Rep 1-3, letter b differs from water control (p < 0.05)
  GB concentration, GB (plants treated with GB): 41.18b μg · g^−1 MS and 37.71b μg · g^−1 MS and 38.53b μg · g^−1 MS
[1]; summary of Tables 1 to 4, plants sprayed at the flowering stage
  Internal glycine-betaine content of the seeds compared to untreated seeds: significantly higher
Corn seed; Variety-female 3, 200 seeds on moistened sand, 10° C. for 7 days then 25° C. for 5 days
  Seed germination percentage (plants treated with GB): 86.61
Corn seed; Variety-female 3, after cold treatment, versus seeds from plants treated with water
  Percentage increase in germination: 2.1%
Corn seed; summary of Table 5, seeds with increased internal content of glycine-betaine
  Seed germination percentage after cold treatment compared with untreated seeds: significantly better seed germination percentage
Corn seed Variety 1; Variety 1-female 1, Rep 1
  Internal concentration of glycine-betaine in corn seed, Mean GB (plants treated with GB): 6.67 mg/kg
  Percentage increase in internal GB concentration: 53%
Corn seed Variety 1; Variety 1-female 2, Rep 2
  Internal concentration of glycine-betaine in corn seed, Mean GB (plants treated with GB): 5.19 mg/kg
  Percentage increase in internal GB concentration: 1135%
Corn seed Variety 1; Variety 1-female 3, Rep 3
  Internal concentration of glycine-betaine in corn seed, Mean GB (plants treated with GB): 6.89 mg/kg
  Percentage increase in internal GB concentration: 15%
[2]
  GB concentration, GB (plants treated with GB): 79.19b μg · g^−1 MS and 79.33b μg · g^−1 MS and 83.91b μg · g^−1 MS
